Non-standard residues stand in square brackets, D forms with d. Residues, ends and D or L forms follow the SMILES beside them. *: point of attachment. DOTA = O=C(O)CN1CCN(CC(=O)O)CCN(CC(=O)*)CCN(CC(=O)O)CC1; Bpa = N[C@@H](Cc1ccc(C(=O)c2ccccc2)cc1)C(=O)O; d3Pal = N[C@H](Cc1cccnc1)C(=O)O; azaGly = NNC(=O)O; Sar = CNCC(=O)O
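Note: Cell-associated radioactivity on confluent EFO-27 monolayers in 96-well plates, measured by microplate scintillation counting.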

For one assay, the system named is LHRH binding sites on human ovarian cancer cells (EFO-27).
Conditions: not given
Take `CN(CC(=O)N[C@@H](Cc1c[nH]cn1)C(=O)N[C@@H](Cc1c[nH]c2ccccc12)C(=O)N[C@@H](CO)C(=O)N[C@@H](Cc1c[nH]cn1)C(=O)N[C@H](CCCNC(=N)N)C(=O)N[C@@H](Cc1c[nH]c2ccccc12)C(=O)N[C@@H](Cc1ccc2ccccc2c1)C(=O)N1CCC[C@H]1C(=O)NNC(N)=O)C(=O)CN1CCN(CC(=O)O)CCN(CC(=O)O)CCN(CC(=O)O)CC1` [BRU-2624]: the concentration for a half-maximal effect (EC50) (usually the concentration giving half of the maximal effect) was 2.01 µM.

`CN(C(=O)CN1CCN(CC(=O)O)CCN(CC(=O)O)CCN(CC(=O)O)CC1)[C@H](Cc1ccc2ccccc2c1)C(=O)N[C@@H](CCCNC(=N)N)C(=O)N[C@@H](Cc1c[nH]c2ccccc12)C(=O)N[C@@H](CO)C(=O)N[C@@H](Cc1c[nH]cn1)C(=O)N[C@H](CCCNC(=N)N)C(=O)N[C@@H](Cc1c[nH]c2ccccc12)C(=O)N[C@@H](Cc1ccc(C(=O)c2ccccc2)cc1)C(=O)N1CCC[C@H]1C(=O)NNC(N)=O` [BRU-2965]: the response was half-maximal at 0.58 µM (EC50).

On to `N=C(N)NCCC[C@H](NC(=O)[C@@H](Cc1ccc2ccccc2c1)NC(=O)CN1CCN(CC(=O)O)CCN(CC(=O)O)CCN(CC(=O)O)CC1)C(=O)N[C@@H](Cc1c[nH]c2ccccc12)C(=O)N[C@@H](CO)C(=O)N[C@@H](Cc1c[nH]cn1)C(=O)N[C@H](CCCNC(=N)N)C(=O)N[C@@H](Cc1c[nH]c2ccccc12)C(=O)N[C@@H](Cc1ccc(C(=O)c2ccccc2)cc1)C(=O)N1CCC[C@H]1C(=O)N[C@H](CO)Cc1ccccc1` [compound 2983], for which the EC50 was determined as 0.45 µM.

Compound `N=C(N)NCCC[C@H](NC(=O)[C@@H](Cc1ccc2ccccc2c1)NC(=O)CN1CCN(CC(=O)O)CCN(CC(=O)O)CCN(CC(=O)O)CC1)C(=O)N[C@@H](Cc1c[nH]c2ccccc12)C(=O)N[C@@H](CO)C(=O)N[C@@H](Cc1c[nH]cn1)C(=O)N[C@H](CCCNC(=N)N)C(=O)N[C@@H](Cc1c[nH]c2ccccc12)C(=O)N[C@@H](Cc1ccc(C(=O)c2ccccc2)cc1)C(=O)N1CCC[C@H]1C(=O)NCCO` [compound 2970] yielded an EC50 of 0.51 µM.

In turn, `CNCC(=O)N[C@@H](CCCNC(=N)N)C(=O)N[C@@H](Cc1c[nH]c2ccccc12)C(=O)N[C@@H](CO)C(=O)N[C@@H](Cc1c[nH]cn1)C(=O)N[C@H](CCCNC(=N)N)C(=O)N[C@@H](Cc1c[nH]c2ccccc12)C(=O)N[C@@H](Cc1ccc(C(=O)c2ccccc2)cc1)C(=O)N1CCC[C@H]1C(=O)NCCCCNC(=O)CN1CCN(CC(=O)O)CCN(CC(=O)O)CCN(CC(=O)O)CC1` [BRU-3041] showed an EC50 of 0.23 to 0.5 µM.

For the compound `CNCC(=O)N[C@@H](CCCNC(=N)N)C(=O)N[C@@H](Cc1c[nH]c2ccccc12)C(=O)N[C@@H](CO)C(=O)N[C@@H](Cc1c[nH]cn1)C(=O)N[C@H](CCCNC(=N)N)C(=O)N[C@@H](Cc1c[nH]c2ccccc12)C(=O)N[C@@H](Cc1ccc(C(=O)c2ccccc2)cc1)C(=O)N1CCC[C@H]1C(=O)NCCCNC(=O)CN1CCN(CC(=O)O)CCN(CC(=O)O)CCN(CC(=O)O)CC1` [compound 3076], a half-maximal response (EC50) required 0.75 ± 0.04 µM.

As for `N=C(N)NCCC[C@H](NC(=O)[C@@H](Cc1ccc2ccccc2c1)NC(=O)CN1CCN(CC(=O)O)CCN(CC(=O)O)CCN(CC(=O)O)CC1)C(=O)N[C@@H](Cc1c[nH]c2ccccc12)C(=O)N[C@@H](CO)C(=O)N[C@@H](Cc1c[nH]cn1)C(=O)N[C@H](CCCNC(=N)N)C(=O)N[C@@H](Cc1c[nH]c2ccccc12)C(=O)N[C@@H](Cc1ccc(C(=O)c2ccccc2)cc1)C(=O)N1CCC[C@H]1C(=O)NNC(=O)NCCOCCN` [compound 3022], the concentration giving a half-maximal response (EC50) amounted to 0.71 µM.

In turn, `N=C(N)NCCC[C@H](NC(=O)[C@H](Cc1ccc(C(=O)O)cc1)NC(=O)CN1CCN(CC(=O)O)CCN(CC(=O)O)CCN(CC(=O)O)CC1)C(=O)N[C@@H](Cc1c[nH]c2ccccc12)C(=O)N[C@@H](CO)C(=O)N[C@@H](Cc1c[nH]cn1)C(=O)N[C@H](CCCNC(=N)N)C(=O)N[C@@H](Cc1c[nH]c2ccccc12)C(=O)N[C@@H](Cc1ccc(C(=O)c2ccccc2)cc1)C(=O)N1CCC[C@H]1C(=O)NNC(N)=O` [BRU-3092] had a concentration giving a half-maximal response (EC50) of 2 µM.

The compound `CN(CC(=O)N[C@@H](Cc1c[nH]cn1)C(=O)N[C@@H](Cc1c[nH]c2ccccc12)C(=O)N[C@@H](CO)C(=O)N[C@@H](Cc1c[nH]cn1)C(=O)N[C@H](Cc1cccnc1)C(=O)N[C@@H](Cc1c[nH]c2ccccc12)C(=O)N[C@@H](Cc1ccc(C(=O)c2ccccc2)cc1)C(=O)N1CCC[C@H]1C(=O)NNC(N)=O)C(=O)CN1CCN(CC(=O)O)CCN(CC(=O)O)CCN(CC(=O)O)CC1` [compound 2673] ({DOTA}-[Sar]HWSH[d3Pal]W[Bpa]P[azaGly]-NH2) displayed a half-maximal effective concentration (EC50) of 12.3 µM.

Take `CN(CC(=O)N[C@@H](Cc1c[nH]cn1)C(=O)N[C@@H](Cc1c[nH]c2ccccc12)C(=O)N[C@@H](CO)C(=O)N[C@@H](Cc1c[nH]cn1)C(=O)N[C@H](CCCNC(=N)N)C(=O)N[C@@H](Cc1c[nH]c2ccccc12)C(=O)N[C@@H](CC1CCCCC1)C(=O)N1CCC[C@H]1C(=O)NNC(N)=O)C(=O)CN1CCN(CC(=O)O)CCN(CC(=O)O)CCN(CC(=O)O)CC1` [BRU-2718]: a half-maximal response (EC50) required 0.63 µM.

Compound `CN(CC(=O)N[C@@H](Cc1c[nH]cn1)C(=O)N[C@@H](Cc1c[nH]c2ccccc12)C(=O)N[C@@H](CO)C(=O)N[C@@H](Cc1c[nH]cn1)C(=O)N[C@H](CCCNC(=N)N)C(=O)N[C@@H](Cc1c[nH]c2ccccc12)C(=O)N[C@@H](Cc1cccnc1)C(=O)N1CCC[C@H]1C(=O)NNC(N)=O)C(=O)CN1CCN(CC(=O)O)CCN(CC(=O)O)CCN(CC(=O)O)CC1` [BRU-2726] yielded an EC50 of 17.4 µM.

`CNCC(=O)N[C@@H](CCCNC(=N)N)C(=O)N[C@@H](Cc1c[nH]c2ccccc12)C(=O)N[C@@H](CO)C(=O)N[C@@H](Cc1c[nH]cn1)C(=O)N[C@H](CCCNC(=N)N)C(=O)N[C@@H](Cc1c[nH]c2ccccc12)C(=O)N[C@@H](Cc1ccc(C(=O)c2ccccc2)cc1)C(=O)N1CCC[C@H]1C(=O)N1CCCCC1CNC(=O)CN1CCN(CC(=O)O)CCN(CC(=O)O)CCN(CC(=O)O)CC1` (some centres unmarked) [BRU-3102]: the EC50 was not above 0.2 µM.

For the compound `N=C(N)NCCC[C@H](NC(=O)[C@@H](Cc1ccc2ccccc2c1)NC(=O)[C@@H](N)CCCCNC(=O)CN1CCN(CC(=O)O)CCN(CC(=O)O)CCN(CC(=O)O)CC1)C(=O)N[C@@H](Cc1c[nH]c2ccccc12)C(=O)N[C@@H](CO)C(=O)N[C@@H](Cc1c[nH]cn1)C(=O)N[C@H](CCCNC(=N)N)C(=O)N[C@@H](Cc1c[nH]c2ccccc12)C(=O)N[C@@H](Cc1ccc(C(=O)c2ccccc2)cc1)C(=O)N1CCC[C@H]1C(=O)NNC(N)=O` [BRU 3098], the EC50 was found to be 0.41 µM.

Regarding `N=C(N)NCCC[C@H](NC(=O)[C@@H](Cc1ccc2ccccc2c1)NC(=O)CN1CCN(CC(=O)O)CCN(CC(=O)O)CCN(CC(=O)O)CC1)C(=O)N[C@@H](Cc1c[nH]c2ccccc12)C(=O)N[C@@H](CO)C(=O)N[C@@H](CCCNC(N)=O)C(=O)N[C@H](CCCNC(=N)N)C(=O)N[C@@H](Cc1c[nH]c2ccccc12)C(=O)N[C@@H](Cc1ccc(C(=O)c2ccccc2)cc1)C(=O)N1CCC[C@H]1C(=O)NNC(N)=O` [BRU-3030], a half-maximal effect (EC50) was put at 0.93 µM.

Still in this assay, the particulars now being: EFO-27 cells, competition with [125I-Tyr8]BRU-2477, 90 min.
`N=C(N)NCCC[C@H](NC(=O)[C@H](Cc1ccc2ccccc2c1)NC(=O)CN1CCN(CC(=O)O)CCN(CC(=O)O)CCN(CC(=O)O)CC1)C(=O)N[C@@H](Cc1c[nH]c2ccccc12)C(=O)N[C@@H](CO)C(=O)N[C@@H](Cc1c[nH]cn1)C(=O)N[C@H](CCCNC(=N)N)C(=O)N[C@@H](Cc1c[nH]c2ccccc12)C(=O)N[C@@H](Cc1ccc(C(=O)c2ccccc2)cc1)C(=O)N1CCC[C@H]1C(=O)NNC(N)=O` [BRU-3051]: the EC50 turned out to be 0.62 µM.

`N=C(N)NCCC[C@H](NC(=O)[C@@H](Cc1ccc2ccccc2c1)NC(=O)CN1CCN(CC(=O)O)CCN(CC(=O)O)CCN(CC(=O)O)CC1)C(=O)N[C@@H](Cc1c[nH]c2ccccc12)C(=O)N[C@@H](CO)C(=O)N[C@@H](Cc1c[nH]cn1)C(=O)N[C@H](CCCNC(=N)N)C(=O)N[C@@H](Cc1c[nH]c2ccccc12)C(=O)N[C@@H](Cc1ccc(C(=O)c2ccccc2)cc1)C(=O)N1CC[C@H]1C(=O)NNC(N)=O` [compound 2993]: the 50% effective concentration (EC50) is 0.38 µM.

The compound `CN(CC(=O)N[C@@H](Cc1c[nH]cn1)C(=O)N[C@@H](Cc1c[nH]c2ccccc12)C(=O)N[C@@H](CO)C(=O)N[C@@H](Cc1ccc(O)cc1)C(=O)N[C@H](CCCNC(=N)N)C(=O)N[C@@H](Cc1c[nH]c2ccccc12)C(=O)N[C@@H](Cc1ccc(C(=O)c2ccccc2)cc1)C(=O)N1CCC[C@H]1C(=O)NNC(N)=O)C(=O)CN1CCN(CC(=O)O)CCN(CC(=O)O)CCN(CC(=O)O)CC1` [BRU-2668] ({DOTA}-[Sar]HWSY[dR]W[Bpa]P[azaGly]-NH2; C-terminus assumed) displayed an EC50 of 3.47 µM.

The assay is the same for the next values; noted with them: Table 5: modifications of amino acids at positions 1 and 2; in vitro binding on EFO-27 cells.
Consider `N=C(N)NCCC[C@@H](NC(=O)[C@H](Cc1c[nH]cn1)NC(=O)[C@H](CO)NC(=O)[C@H](Cc1c[nH]c2ccccc12)NC(=O)[C@H](Cc1c[nH]cn1)NC(=O)[C@@H](Cc1cccc2ccccc12)NC(=O)CNC(=O)CN1CCN(CC(=O)O)CCN(CC(=O)O)CCN(CC(=O)O)CC1)C(=O)N[C@@H](Cc1c[nH]c2ccccc12)C(=O)N[C@@H](Cc1ccc(C(=O)c2ccccc2)cc1)C(=O)N1CCC[C@H]1C(=O)NNC(N)=O` [BRU-2766], for which it took 0.62 µM to reach a half-maximal effect (EC50).

Consider `C[C@@H](C(=O)N[C@@H](Cc1c[nH]cn1)C(=O)N[C@@H](Cc1c[nH]c2ccccc12)C(=O)N[C@@H](CO)C(=O)N[C@@H](Cc1c[nH]cn1)C(=O)N[C@H](CCCNC(=N)N)C(=O)N[C@@H](Cc1c[nH]c2ccccc12)C(=O)N[C@@H](Cc1ccc(C(=O)c2ccccc2)cc1)C(=O)N1CCC[C@H]1C(=O)NNC(N)=O)N(C)C(=O)CN1CCN(CC(=O)O)CCN(CC(=O)O)CCN(CC(=O)O)CC1` [BRU-2736], for which the midpoint of the response, the EC50, lay at 1.42 µM.

In turn, `N=C(N)NCCC[C@H](NC(=O)[C@@H]1Cc2ccccc2CN1C(=O)CNC(=O)CN1CCN(CC(=O)O)CCN(CC(=O)O)CCN(CC(=O)O)CC1)C(=O)N[C@@H](Cc1c[nH]c2ccccc12)C(=O)N[C@@H](CO)C(=O)N[C@@H](Cc1c[nH]cn1)C(=O)N[C@H](CCCNC(=N)N)C(=O)N[C@@H](Cc1c[nH]c2ccccc12)C(=O)N[C@@H](Cc1ccc(C(=O)c2ccccc2)cc1)C(=O)N1CCC[C@H]1C(=O)NNC(N)=O` [BRU-3052] displayed an EC50 of 0.55 µM.

The assay is the same for the next values; noted with them: Table 19: analogs used in the stabilization studies.
In the case of “BRU-2994: DO3A10CM-Dnal2-R-W-S-H-r-W-Bpa4-Flp4-azaG”, the response was half-maximal at 0.6 µM (EC50).

The assay is the same for the next values; noted with them: ratio of EC50 to BRU-2813 (EC50=0.33 μM).
On to `CN(C(=O)CN1CCN(CC(=O)O)CCN(CC(=O)O)CCN(CC(=O)O)CC1)[C@H](Cc1ccc2ccccc2c1)C(=O)N[C@@H](CCCNC(=N)N)C(=O)N[C@@H](Cc1c[nH]c2ccccc12)C(=O)N[C@@H](CO)C(=O)N[C@@H](Cc1c[nH]cn1)C(=O)N[C@H](CCCNC(=N)N)C(=O)N[C@@H](Cc1c[nH]c2ccccc12)C(=O)N[C@@H](Cc1ccc(C(=O)c2ccccc2)cc1)C(=O)N1CCC[C@H]1C(=O)NNC(N)=O` [BRU-2965], for which the “binding potency, times lower than BRU-2813” value is given as approximately 2.

The assay is the same for the next values; noted with them: read-out: EC50 μM; Underivatized LHRH peptides and LHRH peptides with chelator on N-terminus; EFO-27 cells.
Consider “BRU-2994: DO3A10CM-Dnal2-R-W-S-H-r-W-Bpa4-Flp4-azaG”, for which the concentration giving a half-maximal response (EC50) was 0.6 µM.

The values above are taken from patent publication US20120045393A1 (priority 2009, published 2012).
